From US10004718B2, “Erythropoietin expression promoter” (TOHOKU UNIVERSITY, priority 2012, dated 2018)

How the values were obtained:
[1] = tested on: HIF-α; experiment: HIF-α concentration in Hep3B cells (Total HIF-1α Cell-Based ELISA); parameters: species or system human; conditions: compound 10 μM, 20% O2, 24 hours
Procedure: The Hep3B cells were seeded at 1×10^4 cells/well to a 24-well cell culture plate and then cultured under normal oxygen (20% O2) for 24 hours. Each of 3 types of compounds (compounds #4, 21, and 35) was mixed at a concentration of 10 μM into RPMI1640 common medium 1. After further culture under normal oxygen (20% O2) for 24 hours, the concentration of HIF-α produced in the medium was measured using Total HIF-1 α Cell-Based ELISA Kit (manufactured by R&D Systems, Inc.). Hep3B cells cultured in the absence of the compound (DMSO added [1%]) (“Control” of FIG. 5) were used as a negative control. Hep3B cells cultured in the presence of HIF activators (FG-4592 [10 μM], DMOG [10 μM], and ciclopirox[10 μM]) (“FG”, “DMOG”, and “Ciclo”, respectively, of FIG. 5) were used as positive controls.

[2] = tested on: erythropoietin; experiment: Erythropoietin production in vivo in mice, oral administration for 7 days; parameters: species or system mouse; conditions: 7 consecutive days, plasma 24 hours after final administration, vs corn oil, DMSO+corn oil or no administration
Procedure: A mixed solution (200 μl) of each of 4 types of compounds (compounds #4, 5, 21, and 35) (10 mg/100 μl of DMSO) (10 μl) and corn oil (190 μl) was prepared. This mixed solution (200 μl) was orally administered to each mouse (C57BL/6N 8 W, male, 21-25 g) between 15:00 to 18:00 every day using a sonde. This administration was carried out for 7 consecutive days. Mice orally given corn oil or DMSO and corn oil as well as non-administered mice were used as controls.
24 hours after the final administration, each mouse was cervically dislocated, and 500 μl of blood was collected from the heart. Then, an anticoagulant (10 μl of heparin) was added thereto, and the resulting blood was centrifuged (12000 rpm×20 min, 4° C.) to isolate plasma. The plasma concentration […] of erythropoietin was measured using a kit (Quantikine Mouse/Rat Epo Immunoassay, manufactured by R&D Systems, Inc.).

[3] = tested on: MCA (middle cerebral artery) occlusion mouse models; experiment: Cerebral ischemic injury, MCA occlusion mouse model (TTC staining); format: in vivo; conditions: 40 mg/kg intraperitoneal 4 hours before ischemia, 24 hours after reperfusion, vs DMSO, n=1
Procedure: Two types of compounds (compounds #4 and 35) (40 mg/kg of mouse body weight) were each intraperitoneally administered to a mouse 4 hours before ischemia (n=1). A vehicle (DMSO) was administered to a control (n=1). Anesthesia was induced in each mouse with 4% halothane and oxygen and maintained by the intraperitoneal administration of ketamine (40 mg/kg) and xylazine (4 mg/kg) at 30-minute intervals. After the induction of systemic anesthesia, bifurcation of the common carotid artery was exposed under a microscope. A 6-0 nylon thread having a silicon-coated tip was inserted from the internal carotid artery toward the central side so that its tip reached the anterior communicating artery. The common carotid artery was further ligated to block blood flow into the middle cerebral artery. After the ischemic burden for 30 minutes, the nylon thread was removed so that the ligated common carotid artery was released to induce reperfusion.
24 hours after the reperfusion, each mouse was cervically dislocated and then decapitated to excise the brain. Five coronal sections of the cerebrum having a thickness of 2 mm were prepared from the boundary between the cerebrum and the cerebellum. The coronal sections of the cerebrum were stained with TCC through a reaction at 37° C. for 20 minutes with a TTC solution diluted to 1.5% with PBS. […]

[4] = tested on: Leigh cells; experiment: Cell death caused by oxidative stress (BSO) in Leigh syndrome patient fibroblasts; format: cell-based, human; conditions: compound 10 μM, 4 days after BSO treatment
Procedure: In Examples 2 to 7 and Reference Example 1 below, an erythropoietin-producing human hepatocellular carcinoma cell Hep3B (obtained from ATCC [American Type Culture Collection]) was cultured and maintained under conditions of 5% CO2/20% O2 and 37° C. in an RPMI1640 (manufactured by Life Technologies, Inc./GIBCO) medium containing 100 U/mL penicillin (manufactured by Life Technologies, Inc./GIBCO), 100 μg/mL streptomycin (manufactured by Life Technologies, Inc./GIBCO), and 10% fetal bovine serum (FBS) (manufactured by Life Technologies, Inc./GIBCO) (hereinafter, referred to as “RPMI1640 common medium 1”). In Example 15 below, Leigh syndrome patients were subjected to skin biopsy to obtain skin fibroblast cells, which were then primarily cultured under conditions of 5% CO2/20% O2 and 37° C. in a DMEM low glucose (manufactured by Life Technologies, Inc./GIBCO) medium containing 100 U/mL penicillin (manufactured by Life Technologies, Inc./GIBCO), 100 μg/mL streptomycin (manufactured by Life Technologies, Inc./GIBCO), and 1% FBS (manufactured by Life Technologies, Inc./GIBCO) (hereinafter, referred to as “DMEM low glucose common medium”) to isolate cells (Leigh cells). In Example 13 below, a human kidney-derived cell line HK-2 (obtained from ATCC) was cultured and maintained under conditions of 5% CO2/20% O2 and 37° C. in a DMEM/F12 (manufactured by Life Technologies, Inc./GIBCO) medium containing 100 U/mL penicillin (manufactured by Life Technologies, Inc./GIBCO), 100 μg/mL streptomycin (manufactured by Life Technologies, Inc./GIBCO), and 10% fetal bovine serum (manufactured by Life Technologies, Inc./GIBCO) (hereinafter, referred to as “DMEM/F12 common medium”). In Example 14 below, a rat islet of Langerhans-derived cell line ISN-1e (kindly provided by Hisamitsu Ishihara, Nihon University School of Medicine) was cultured and maintained under conditions of 5% CO2/20% O2 and 37° C. in an RPMI1640 (manufactured by Life Technologies, Inc./GIBCO) medium containing 10 mM HEPES (manufactured by Sigma-Aldrich Corp.), 2 mM glutamine (manufactured by Sigma-Aldrich Corp.), 50 μM β-mercaptoethanol (manufactured by Sigma-Aldrich Corp.), 100 U/mL penicillin (manufactured by Life Technologies, Inc./GIBCO), 100 μg/mL streptomycin (manufactured by Life Technologies, Inc./GIBCO), and 10% FBS (manufactured by Life Technologies, Inc./GIBCO) (hereinafter, referred to as “RPMI1640 common medium 2”).
The Leigh cells were seeded at 4×10^4 cells/well to a 24-well cell culture plate and then cultured for 24 hours. The glutathione synthesis inhibitor BSO (L-buthionine sulphoximine) (manufactured by Sigma-Aldrich Corp.) was mixed at […] into a medium. After culture for 24 hours in the presence of BSO, each of 5 types of compounds (compounds #2, 4, 5, 21, and 35) was mixed at 10 μM into the medium. After culture for 4 days in the presence of these 5 types of compounds, the number of live cells was measured using Cell Counting Kit-8 (manufactured by Dojindo Laboratories) to calculate the survival rate of the cells (“BSO+#2”, “BSO+#4”, “BSO+#5”, “BSO+#21”, and “BSO+#35” of FIG. 17). […]

SMILES: COc1cc(COc2ccc3[nH]cc(CC(=O)O)c3c2)cc(OC)c1 [compound #35, 5-(3,5-Dimethoxybenzyloxy)-3-indoleacetic acid]
- HIF-α concentration in the Hep3B cells [1]: increase the HIF-α concentration
- amount of erythropoietin in the mouse blood [2]: increased
- volume of the cerebral infarction site [3]: decreased
- cell death of the Leigh cells by BSO [4]: efficiently suppress the cell death
